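Protocol summary: plate cells (96-well), add compound at 5 concentrations, incubate 48 h, interpolate endpoints linearly. GI50: concentration for 50% inhibition of growth.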 Activity calls are given as the source filed them. Rule as the data show it: active = GI50 up to about 1.1 µM and inactive = higher.
Tests used:
Assay in all cases: inhibition of tumour cell growth, NCI panel, 48 h
[1] = system: A498
[2] = system: A549
[3] = system: CAKI-1
[4] = system: CCRF-CEM
[5] = system: COLO 205
[6] = system: DLD-1
[7] = system: DMS-273
[8] = system: EKVX
[9] = system: HCC 2998
[10] = system: HCT-116
[11] = system: HCT-15
[12] = system: HL-60
[13] = system: HOP-18
[14] = system: HOP-62
[15] = system: HOP-92
[16] = system: HT-29
[17] = system: IGROV-1
[18] = system: K562
[19] = system: KM-20L2
[20] = system: KM12
[21] = system: LOX IMVI
[22] = system: M19-MEL
[23] = system: MCF7
[24] = system: MOLT-4
[25] = system: Malme-3M
[26] = system: NCI-H226
[27] = system: NCI-H23
[28] = system: NCI-H460
[29] = system: NCI-H522
[30] = system: NCI/ADR-RES
[31] = system: OVCAR-3
[32] = system: OVCAR-4
[33] = system: OVCAR-5
[34] = system: OVCAR-8
[35] = system: RPMI-8226
[36] = system: RXF 393
[37] = system: SF-268
[38] = system: SF-295
[39] = system: SF-539
[40] = system: SK-MEL-28
[41] = system: SK-MEL-2
[42] = system: SK-MEL-5
[43] = system: SK-OV-3
[44] = system: SN12C
[45] = system: SNB-19
[46] = system: SNB-75
[47] = system: SNB-78
[48] = system: SW-620
[49] = system: U-251
[50] = system: UACC-257
[51] = system: UACC-62
[52] = system: UO-31
[53] = system: XF498
[54] = system: 786-0
[55] = system: ACHN
[56] = system: DMS-114
[57] = system: LXFL 529
[58] = system: M14
[59] = system: TK-10
[60] = system: SR

In the case of `CCCCCCCC/C=C\CCCCCCCCCCCC(=O)O` [ERUCIC ACID], the GI50 [1] was 0.891 µM (active), the GI50 [2] was 38.5 µM (inactive) and the GI50 [3] was 42 µM (inactive). For the same compound, the GI50 [4] was 24.4 µM (inactive), the GI50 [5] was 20.2 µM (inactive) and the GI50 [6] was 42.4 µM (inactive). The GI50 [7] was 22.2 µM (inactive), the GI50 [8] was 34 µM (inactive) and the GI50 [9] was 44.1 µM (inactive). The GI50 [10] was 22.3 µM (inactive), the GI50 [11] was 43.7 µM and the GI50 [12] was 19.3 µM (inactive). For the same compound, the GI50 [13] was 46.2 µM (inactive), the GI50 [14] was 30.1 µM (inactive) and the GI50 [15] was 38.9 µM (inactive). For the same compound, the GI50 [16] was 43.8 µM (inactive), the GI50 [17] was 55.1 µM (inactive) and the GI50 [18] was 22.1 µM (inactive). For the same compound, the GI50 [19] was 38.3 µM (inactive), the GI50 [20] was 22.3 µM (inactive) and the GI50 [21] was 29.4 µM (inactive). The GI50 [22] was 26.2 µM (inactive), the GI50 [23] was 14.9 µM (inactive) and the GI50 [24] was 37.3 µM (inactive). The GI50 [25] was 47.9 µM (inactive), the GI50 [26] was 52.4 µM (inactive) and the GI50 [27] was 25.5 µM (inactive). The GI50 [28] was 7.48 µM (inactive), the GI50 [29] was 19.8 µM (inactive) and the GI50 [30] was 86.3 µM (inactive). For the same compound, the GI50 [31] was 17.8 µM (inactive), the GI50 [32] was 30.8 µM (inactive) and the GI50 [33] was 102 µM (inactive). For the same compound, the GI50 [34] was 37.2 µM (inactive), the GI50 [35] was 45.6 µM (inactive) and the GI50 [36] was 8.02 µM (inactive). For the same compound, the GI50 [37] was 52.4 µM (inactive), the GI50 [38] was 35.3 µM (inactive) and the GI50 [39] was 16.8 µM (inactive). For the same compound, the GI50 [40] was 32.7 µM (inactive), the GI50 [41] was 18 µM (inactive) and the GI50 [42] was 18.8 µM (inactive). For the same compound, the GI50 [43] was > 85.9 µM (inactive), the GI50 [44] was 32.6 µM (inactive) and the GI50 [45] was 30.8 µM (inactive). For the same compound, the GI50 [46] was 37 µM (inactive), the GI50 [47] was 44.4 µM (inactive) and the GI50 [48] was 31.6 µM (inactive). For the same compound, the GI50 [49] was 37.9 µM (inactive), the GI50 [50] was 58.2 µM (inactive) and the GI50 [51] was 27.5 µM (inactive). The GI50 [52] was 74 µM (inactive) and the GI50 [53] was 1.48 µM (inactive).
`COC1CCC(=C2C(=O)OC(C)(C)OC2=O)N1` (centres undefined) was tested, and the GI50 [54] was > 100 µM (inactive), the GI50 [2] was > 100 µM (inactive) and the GI50 [55] was > 100 µM (inactive). For the same compound, the GI50 [3] was > 100 µM (inactive), the GI50 [4] was > 100 µM (inactive) and the GI50 [5] was > 100 µM (inactive). The GI50 [6] was > 100 µM (inactive), the GI50 [56] was > 100 µM (inactive) and the GI50 [7] was > 100 µM (inactive). For the same compound, the GI50 [8] was > 100 µM (inactive), the GI50 [9] was > 100 µM (inactive) and the GI50 [10] was > 100 µM (inactive). For the same compound, the GI50 [11] was over 100 µM, the GI50 [12] was > 100 µM (inactive) and the GI50 [13] was > 100 µM (inactive). The GI50 [14] was > 100 µM (inactive), the GI50 [16] was > 100 µM (inactive) and the GI50 [17] was > 100 µM (inactive). The GI50 [18] was > 100 µM (inactive), the GI50 [19] was > 100 µM (inactive) and the GI50 [20] was > 100 µM (inactive). The GI50 [21] was > 100 µM (inactive), the GI50 [57] was > 100 µM (inactive) and the GI50 [58] was > 100 µM (inactive). The GI50 [22] was > 100 µM (inactive), the GI50 [24] was > 100 µM (inactive) and the GI50 [25] was > 100 µM (inactive). For the same compound, the GI50 [26] was > 100 µM (inactive), the GI50 [27] was > 100 µM (inactive) and the GI50 [28] was > 100 µM (inactive). The GI50 [29] was > 100 µM (inactive), the GI50 [32] was > 100 µM (inactive) and the GI50 [33] was > 100 µM (inactive). The GI50 [34] was > 100 µM (inactive), the GI50 [35] was > 100 µM (inactive) and the GI50 [36] was > 100 µM (inactive). The GI50 [37] was > 100 µM (inactive), the GI50 [38] was > 100 µM (inactive) and the GI50 [39] was > 100 µM (inactive). The GI50 [40] was > 100 µM (inactive), the GI50 [41] was > 100 µM (inactive) and the GI50 [43] was > 100 µM (inactive). The GI50 [44] was > 100 µM (inactive), the GI50 [45] was > 100 µM (inactive) and the GI50 [46] was > 100 µM (inactive). For the same compound, the GI50 [48] was > 100 µM (inactive), the GI50 [59] was > 100 µM (inactive) and the GI50 [49] was > 100 µM (inactive). The GI50 [50] was > 100 µM (inactive), the GI50 [51] was > 100 µM (inactive) and the GI50 [52] was > 100 µM (inactive). For the same compound, the GI50 [53] was > 100 µM (inactive).
For `COc1cc(CC(=O)c2cc3c(cc2-c2ccccc2)OCO3)cc(OC)c1OC`, the GI50 [54] was > 100 µM (inactive), the GI50 [1] was 33.3 µM (inactive) and the GI50 [2] was 26.1 µM (inactive). For the same compound, the GI50 [55] was 6.95 µM (inactive), the GI50 [4] was 13 µM (inactive) and the GI50 [5] was 56.4 µM (inactive). For the same compound, the GI50 [6] was 81.1 µM (inactive), the GI50 [56] was 16.6 µM (inactive) and the GI50 [7] was 40.2 µM (inactive). The GI50 [8] was 10.8 µM (inactive), the GI50 [9] was > 100 µM (inactive) and the GI50 [10] was 43.9 µM (inactive). For the same compound, the GI50 [11] was 66.5 µM, the GI50 [12] was 11.1 µM (inactive) and the GI50 [13] was 16 µM (inactive). The GI50 [14] was 79.6 µM (inactive), the GI50 [15] was < 0.01 µM (active) and the GI50 [16] was > 100 µM (inactive). The GI50 [17] was 23.1 µM (inactive), the GI50 [18] was 15.8 µM (inactive) and the GI50 [19] was 96.6 µM (inactive). The GI50 [20] was > 100 µM (inactive), the GI50 [21] was 0.253 µM (active) and the GI50 [57] was 9.38 µM (inactive). The GI50 [58] was 45.9 µM (inactive), the GI50 [24] was 17.7 µM (inactive) and the GI50 [25] was 16.9 µM (inactive). The GI50 [26] was 14 µM (inactive), the GI50 [27] was 22.9 µM (inactive) and the GI50 [28] was 67.9 µM (inactive). For the same compound, the GI50 [29] was 18.7 µM (inactive), the GI50 [31] was 31 µM (inactive) and the GI50 [32] was 27.1 µM (inactive). For the same compound, the GI50 [33] was > 100 µM (inactive), the GI50 [34] was 58.7 µM (inactive) and the GI50 [36] was 30.2 µM (inactive). The GI50 [37] was 75.7 µM (inactive), the GI50 [38] was 34.5 µM (inactive) and the GI50 [39] was 17.5 µM (inactive). The GI50 [40] was 58.3 µM (inactive), the GI50 [41] was 44.2 µM (inactive) and the GI50 [42] was 6.62 µM (inactive). For the same compound, the GI50 [43] was 49.3 µM (inactive), the GI50 [44] was 68.7 µM (inactive) and the GI50 [45] was 72.3 µM (inactive). For the same compound, the GI50 [46] was 1.18 µM (inactive), the GI50 [47] was 25.8 µM (inactive) and the GI50 [60] was 19.1 µM (inactive). For the same compound, the GI50 [48] was 43.4 µM (inactive), the GI50 [59] was 32.9 µM (inactive) and the GI50 [49] was 71.6 µM (inactive). For the same compound, the GI50 [50] was 23.4 µM (inactive), the GI50 [52] was 19.5 µM (inactive) and the GI50 [53] was 17.1 µM (inactive).
